According to US6492344B1, “Syndecan enhancer element and syndecan stimulation of cellular differentiation” (Biotie Therapies Corp., priority 1993, dated 2002):
Entries after “also recorded” stand apart in the source; their conditions may differ.

Legend:
[1] = test system: FGF-inducible Response Element (FiRE); assay: FiRE CAT assay with AP-1 activating agents in stable 3T3NIH cells; assay type: cell-based, mouse; conditions: minimal promoter, agents known to activate AP-1
Procedure: FIG. 24. […] Different agents known to induce fos-jun complexes and activate AP-1 driven promoters, were tested for FiRE activation in CAT assay with the minimal promoter transferred in stable 3T3NIH cells in the presence of protein kinase C activator (TPA, 10 mm), protein phosphatase 1 and 2 inhibitors (DA and calycalin A), a cAMP activator (forskolin), or a tyrosine phosphatase inhibitor (orthovanadate).
Agents Activating AP-1 Are Not Sufficient for FiRE Activation. Since FiRE contains AP-1 transcription factors, whose activation is well characterized, we tested chemicals known to cause AP-1 dependent gene activation. These included the protein kinase C (PKC) activator 12-O-tetradecanoylphorpol-13-acetate (TPA), protein-phosphate-1 and -2 inhibitors okadaic acid and calyculin A, cAMP activator forskolin and tyrosine kinase phosphatase inhibitor orthovanadate (FIG. 24a).

[2] = test system: syndecan-1 expression in MCF-7 cells; assay: Syndecan mRNA expression in MCF-7 cells under estrogen and toremifene; assay type: cell-based, human; conditions: MCF-7 cells exposed to estrogen, then anti-estrogen treatment
Procedure: (§1) The steroid-responsive human breast cancer cell line MCF-7 was used to study the expression of human syndecan under different growth conditions regulated by estrogen and anti-estrogen. Cells were plated at a density of 1.2×10^6 cells/100 mm of plastic culture dish and grown as monolayer cultures in 10 ml per dish of phenol red-free DMEM medium with 5% dextran/charcoal treated fetal calf serum (DS-FCS), 2 mM L-glutamine and 3 μg/ml insulin. […] The cells were cultured for 6 days, and the media were changed every second day. For RNA extraction, cells were washed in situ with PBS and scraped from the plates in 4 M guanidine isothiocyanate.

MCF-7 cells = assay: Growth behavior of MCF-7 cells under estrogen and toremifene; assay type: cell-based, human; conditions: MCF-7 cells exposed to estrogen, then toremifene
Procedure: as §1

[3] = test system: FGF-inducible Response Element (FiRE); assay: pFiRE CAT reporter activation by growth factors in 3T3NIH cells; assay type: cell-based, mouse; conditions: pFiRE transfected 3T3NIH cells; 10 ng/ml growth factor (2 ng/ml TGF-β) or 5% FCS, 2 days
Procedure: Each of these plasmids was transiently transfected into 3T3NIH cells, using the calcium phosphate precipitation method (Chen and Okayama, Mol. Cell Biol. 7:2745-2752 (1987)) as follows. For transient transfections NIH3T3 cells were plated at equal density on six-well plates (Falcon) two days before transfection. Plasmid DNA was transfected into cells by calcium phosphate method (Chen and Okayama, Mol. Cell Biol. 7:2745-2752 (1987)). A β-galactosidase expressing plasmid (pSV-β-galactosidase, Promega) was co-transfected with CAT constructs to monitor transfection efficiencies. Three parallel transfections were used in every assay. Directly after transfection growth factors were added, media change the next day and cells were harvested after two days. CAT activities were measured by liquid scintillation and β-galactosidase activities spectrophotometrically at 420 nm as described by Vihinen et al., J. Biol. Chem 268:17261-17269 (1993)). As a control, other samples of the cells transfected with each plasmid were treated with buffer without FGF-2 for the same time periods.
For the gene expression analysis the fragments of the syndecan-1 upstream region were subcloned from mouse genomic clones into the XbaI site of the pCATProm vector in which a mouse syndecan-1 promoter region (−1310 to +140) was fused to the CAT reporter gene (Vihinen et al., J. Biol. Chem. 271:12532-12541 (1996)). The pX-HIIICAT plasmid was prepared by cloning HindIII-XhoI promoter fragment (−2400 to +140 bp) into the promoterless pCAT basic vector (Promega). For pXSp1 and 2 plasmids, SphI fragments −11.4 to −10.5 kb and −10.5 to −9.4 kb, respectively) were deleted from pXb6CAT (−11.6 to −9.4 kb). Constructs pXS2, pXB3 and pXX1 were generated by ligating SphI-EarI/blunt (−10.5 to −10.1 kb), EarI/blunt fragment (−10.1 to −9.8 kb) and EarI/blunt-XbaI (−9.8 to −9.4 kb) from pXSpI into SphI-AccI/blunt, AccI/blunt or XbaI-SphIlblunt sites, respectively, into the pCATProm vector. Blunt ended fragments were made by T4 polymerase (Promega). For FiRE and FiREREV a PstI-StyI/blunt fragment was subcloned into PstI-EcoRV or PstI-SmaI sites of the pBluescript vector and then transfected to Xba-SphI sites in pCATProm vector. These constructs were then used to transient transfect NIH3T3 cells as described supra, and CAT activity was measured.
Effect of Various Growth Factors on Enhancer Activation in NIH3T3 Cells. Plasmid pFiRE was transfected into 3T3NIH cells as described, supra. The cells were starved in DMEM medium supplemented with 5% fetal calf serum to about 70% confluence. Fetal calf serum was then replaced with 2% carboxy-methyl-Sephadex eluted fetal calf serum (CMS) 12 hrs before adding the growth factors. Various growth factors in the same medium, 5% fetal calf serum (FCS) supplemented medium or a control containing the medium, without any added growth factors were incubated with the transfected cells for 2 days, and CAT activity was measured. The effect of 10 ng/ml of FGF-2, FGF-1, FGF-4, FGF-7 (KGF), EGF, IGF1, TGFα, IFNγ, and PDGF and 2 ng/ml TGF-β were tested. The human recombinant growth factors were purchased from Peprotech (FGF-1, -2, and -7), Boehringer (FGF-2) or from Calbiochem (PDGF) TGF-β was purchased from Sigma. The effect of the added growth factors and FCS on DNA synthesis was also tested by a 125-IdU incorporation assay. […] Radioactivity was measured using a gamma counter (Wallac).

3T3NIH cells = assay: 125-IdU incorporation (DNA synthesis) assay in 3T3NIH cells; assay type: cell-based, mouse; conditions: pFiRE transfected 3T3NIH cells; 10 ng/ml growth factor (2 ng/ml TGF-β) or 5% FCS
Excerpt: Effect of Various Growth Factors on Enhancer Activation in NIH3T3 Cells. Plasmid pFiRE was transfected into 3T3NIH cells as described, supra. The cells were starved in DMEM medium supplemented with 5% fetal calf serum to about 70% confluence. Fetal calf serum was then replaced with 2% carboxy-methyl-Sephadex eluted fetal calf serum (CMS) 12 hrs before adding the growth factors. Various growth factors in the same medium, 5% fetal calf serum (FCS) supplemented medium or a control containing the medium, without any added growth factors were incubated with the transfected cells for 2 days, and CAT activity was measured. The effect of 10 ng/ml of FGF-2, FGF-1, FGF-4, FGF-7 (KGF), EGF, IGF1, TGFα, IFNγ, and PDGF and 2 ng/ml TGF-β were tested. The human recombinant growth factors were purchased from Peprotech (FGF-1, -2, and -7), Boehringer (FGF-2) or from Calbiochem (PDGF) TGF-β was purchased from Sigma. The effect of the added growth factors and FCS on DNA synthesis was also tested by a 125-IdU incorporation assay. This cell proliferation assay was carried out by incubating cells for 4-6 hrs with 0.25 μCi/ml 5-[^125I]iodo-2′-deoxyuridine (IdU, Amersham), washed several times with PBS and solubilized in 1 M NaOH. Radioactivity was measured using a gamma counter (Wallac).

[4] = test system: FGF-inducible Response Element (FiRE); assay: FiRE / Syn Prom CAT reporter in MCA3D keratinocytes; assay type: cell-based; conditions: MCA3D mouse keratinocytes transfected with FiRE construct
Procedure: The cells used for proximal promoter constructs were 3T3 NIH, S115 (either hormone-treated or not) and nMuMG cells. For enhancer constructs we used 3T3 NIH cells grown in 2% CMS medium and MCA 3D cells grown in Ham's medium. 3T3 NIH cells were also used to test the effect of growth factors in 2% CMS medium with 10 ng/ml FGF-2 and 2ng/ml TGFβ-1. MCA 3D cells were used to test the effect of 10 ng/ml KGF.
FiRE is Induced Selectively by FGF-7 in Keratinocytes. The ability of FiRE to enhance transcription was tested in the mouse keratinocyte cell line MCA3D (Kuliz-Martin et al., Carcinogenesis 4:1367-1377 (1983)). MCA3D cells were transfected as described supra for mouse NIH3T3 cells. Following transfection, the cells were treated with fetal calf serum, PDGF, FGF-1, FGF-2, and FGF-7 as described supra for the NIH3T3 cells.

syndecan-1 gene = assay: Syndecan-1 mRNA quantification in 3T3NIH cells exposed to FGF-2; assay type: cell-based, mouse; conditions: TGF-β alone
Excerpt: Northern Blot—RNA was isolated from 3T3 and NMuMG cells using 4 M guanidine isothiocyanate and CsCl density centrifugation (Chirgwin et al., Biochemistry 18:5294-5299 (1979)). RNA samples were size-separated on a 1% agarose formaldehyde gel, transferred to a GeneScreen Plus™ membrane (New England Nuclear) and hybridized with a multi-prime (Amersham) labeled partial cDNA clone for mouse syndecan (PM-4) (Saunders et al., J. Cell Biol. 108:1547-1556 (1989)). After hybridization, the membrane was washed in 2×SSC and 1.0% SDS at 65° C. (high stringency conditions). For rehybridization with glyceraldehyde-3-phosphate-dehydrogenase (GAPDH; Fort et al., Nucleic Acid Res. 13:1431-1442 (1985)), the bound PM-4 probe was removed as recommended by the manufacturer of the filter (NEN).
Following incubation with FGF-2, syndecan MRNA was isolated and quantified. Control incubations without FGF-2 were also performed. Syndecan mRNA was isolated and quantified […] FGF-2 treatment following 6, 12, and 24 hr incubations. The quantification of syndecan mRNA production can be seen in FIG. 11a. GAPDH mRNA was used as a loading control. […] The enhancement appears to be maximal at about 6 hrs of FGF-2 incubation, and decreases thereafter. In the Figure, two individual exposures for each time point are presented.

| Molecule | FiRE activation (CAT assay) [1] | FiRE enhancer activation (CAT reporter activity) [3] | DNA synthesis / cell proliferation (125-IdU incorporation) (3T3NIH cells) | also measured |
| --- | --- | --- | --- | --- |
| CCCCCCCCCCCCCC(=O)O[C@@H]1[C@@H](C)[C@@]2(O)[C@@H](C=C(CO)C[C@]3(O)C(=O)C(C)=C[C@@H]23)[C@H]2C(C)(C)[C@]12OC(C)=O [TPA, 12-O-tetradecanoylphorpol-13-acetate] | none of the other compounds known to induce immediate early genes fos and jun and AP-1 driven promoters, were able to activate FiRE; also recorded: do not activate |  |  |  |
| COC[C@@H]([C@H](O)[C@H](O)C(=O)NCC[C@H](C)c1nc(/C=C/C[C@@H]2O[C@]3(C[C@@H](O)[C@@H]2C)O[C@H]([C@H](C[C@H](O)[C@H](C)[C@H](O)[C@H](C)/C=C(C)/C(C)=C/C=C/C(C)=C\C#N)OC)[C@H](OP(=O)(O)O)C3(C)C)co1)N(C)C [calyculin A] | none of the other compounds known to induce immediate early genes fos and jun and AP-1 driven promoters, were able to activate FiRE |  |  |  |
| C=C1[C@@H](O)[C@@H]2O[C@]3(CC[C@H](/C=C/[C@@H](C)[C@@H]4CC(C)=C[C@@]5(O[C@H](C[C@@](C)(O)C(=O)O)CC[C@H]5O)O4)O3)CC[C@H]2O[C@@H]1[C@@H](O)C[C@H](C)[C@H]1O[C@@]2(CCCCO2)CC[C@H]1C [okadaic acid] | none of the other compounds known to induce immediate early genes fos and jun and AP-1 driven promoters, were able to activate FiRE |  |  |  |
| [O]=[V]([O-])([O-])[O-] [orthovanadate] | resulted in activation of FiRE |  |  |  |
| CN(C)CCOc1ccc(/C(=C(/CCCl)c2ccccc2)c2ccccc2)cc1 [toremifene] |  |  |  | syndecan-1 expression [2]: reverse their lowered syndecan expression; also recorded: restored syndecan-1 expression to levels close to that found in cells not exposed to estrogen; growth behavior of cells (MCF-7 cells): aided the cells in maintaining their normal growth behavior |
| EGF: epidermal growth factor (NSDSECPLSHDGYCLHDGVCMYIEALDKYACNCVVGYIGERCQYRDLKWWELR; Epidermal growth factor; UniProt P01133 971-1023, looked up) |  | no significant enhancer activation; also recorded: no effect on enhancer activity | significant increase in DNA synthesis; also recorded: enhanced cell proliferation to a similar extent as FGF-2 |  |
| FGF-1: human recombinant growth factor, FGF family member |  | did not activate or suppress; also recorded: lower effect | significant increase in DNA synthesis | FiRE activation [4]: failed to activate FiRE; also recorded: did not activate FiRE |
| IGF: growth factor IGF1 tested at 10 ng/ml |  | no effect on enhancer activity | enhanced cell proliferation to a similar extent as FGF-2 |  |
| PDGF |  | no significant enhancer activation; also recorded: no effect on enhancer activity | significant increase in DNA synthesis; also recorded: enhanced cell proliferation to a similar extent as FGF-2 | FiRE activation [4]: failed to activate FiRE; also recorded: did not activate FiRE |
| TGF-β: transforming growth factor beta; porcine TGFβ1 |  | no significant enhancer activation | significant increase in DNA synthesis | activation of the syndecan-1 gene (syndecan-1 gene): cannot activate the syndecan-1 gene |
